The results in this text go back to ChEMBL document CHEMBL3046105, “Synthesis and antihyperlipidemic efficiency of berberine-based HMG-CoA reductase inhibitor” (Med Chem Res, 2012).

Data set [1] deals with T1, 3-hydroxy-3-methylglutaryl-coenzyme A reductase (Mus musculus) (UniProt Q01237).
T1 sequence (whole entry): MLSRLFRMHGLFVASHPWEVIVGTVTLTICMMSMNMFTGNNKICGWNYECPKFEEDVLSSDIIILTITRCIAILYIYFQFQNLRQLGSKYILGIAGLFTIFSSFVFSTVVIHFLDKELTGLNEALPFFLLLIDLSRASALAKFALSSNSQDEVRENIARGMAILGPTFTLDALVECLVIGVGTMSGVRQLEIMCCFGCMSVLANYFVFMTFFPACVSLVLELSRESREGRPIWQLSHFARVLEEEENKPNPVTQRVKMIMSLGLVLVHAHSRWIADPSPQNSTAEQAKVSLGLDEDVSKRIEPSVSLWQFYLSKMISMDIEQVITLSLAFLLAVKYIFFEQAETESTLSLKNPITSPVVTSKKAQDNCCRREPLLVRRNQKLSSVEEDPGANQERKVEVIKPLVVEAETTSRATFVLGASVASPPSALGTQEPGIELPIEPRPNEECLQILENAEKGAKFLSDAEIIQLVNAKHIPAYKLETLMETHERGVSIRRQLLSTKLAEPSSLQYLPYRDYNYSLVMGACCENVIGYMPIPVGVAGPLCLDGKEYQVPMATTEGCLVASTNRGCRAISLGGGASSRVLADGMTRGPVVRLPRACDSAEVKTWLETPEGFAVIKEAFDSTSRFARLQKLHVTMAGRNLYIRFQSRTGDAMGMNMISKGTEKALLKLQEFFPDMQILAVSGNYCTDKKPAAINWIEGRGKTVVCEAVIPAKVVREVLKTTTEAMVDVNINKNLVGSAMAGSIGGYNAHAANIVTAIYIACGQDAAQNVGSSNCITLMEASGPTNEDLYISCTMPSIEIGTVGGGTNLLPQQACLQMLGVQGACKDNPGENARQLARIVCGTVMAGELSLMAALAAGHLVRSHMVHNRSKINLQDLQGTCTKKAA
The data set is described as follows: Inhibition of HMGR isolated from Mus musculus (mouse) liver assessed as change in NADPH at 8 umol/l by HPLC analysis.

The test system of data set [2] is Oryctolagus cuniculus. The data set is described as follows: Reduction in hepatic steatosis and appearance of inflammatory cell in high fat-high cholesterol fed New Zealand Oryctolagus cuniculus (rabbit) at 5 mg/kg, po for 2 months by hematoxylin-eosin staining analysis. The class given is functional, organism-based. The arrangement: dose 5 mg/kg.
Data set [3] relates to Oryctolagus cuniculus. The data set is described as follows: Reduction in number of lipid droplets in liver cells of high fat-high cholesterol fed New Zealand Oryctolagus cuniculus (rabbit) at 10 to 15 mg/kg, po for 2 months by hematoxylin-eosin staining analysis. The class given is functional, organism-based.
Data set [4] relates to Oryctolagus cuniculus. Briefly: Antihyperlipidemic activity in high fat-high cholesterol fed New Zealand Oryctolagus cuniculus (rabbit) assessed as high-density lipoprotein-cholesterol level in blood at 5 mg/kg, po for 40 days (reference value: 0.69 +/- 0.02 mmol/l). The class given is functional.
Data set [5] relates to Oryctolagus cuniculus. Briefly: Antihyperlipidemic activity in high fat-high cholesterol fed New Zealand Oryctolagus cuniculus (rabbit) assessed as low-density lipoprotein-cholesterol level in blood at 5 mg/kg, po for 40 days (reference value: 3.47 +/- 0.44 mmol/l). It counts as functional.
Data set [6] relates to Oryctolagus cuniculus. Briefly: Antihyperlipidemic activity in high fat-high cholesterol fed New Zealand Oryctolagus cuniculus (rabbit) assessed as triglyceride level in blood at 15 mg/kg, po for 40 days (reference value: 2.07 +/- 0.33 mmol/l). The class given is functional.
Data set [7] concerns Oryctolagus cuniculus. The data set is described as follows: Antihyperlipidemic activity in high fat-high cholesterol fed New Zealand Oryctolagus cuniculus (rabbit) assessed as total cholesterol level in blood at 15 mg/kg, po for 40 days (reference value: 8.74 +/- 0.53 mmol/l). It counts as functional.
Data set [8] concerns Oryctolagus cuniculus. The data set is described as follows: Antihyperlipidemic activity in high fat-high cholesterol fed New Zealand Oryctolagus cuniculus (rabbit) assessed as high-density lipoprotein-cholesterol level in blood at 15 mg/kg, po for 40 days (reference value: 0.67 +/- 0.22 mmol/l). The class given is functional.
The test system of data set [9] is Oryctolagus cuniculus. Briefly: Antihyperlipidemic activity in high fat-high cholesterol fed New Zealand Oryctolagus cuniculus (rabbit) assessed as low-density lipoprotein-cholesterol level in blood at 15 mg/kg, po for 40 days (reference value: 3.45 +/- 0.56 mmol/l). It counts as functional.
The subject of data set [10] is Oryctolagus cuniculus. The data set is described as follows: Antihyperlipidemic activity in high fat-high cholesterol fed New Zealand Oryctolagus cuniculus (rabbit) assessed as triglyceride level in blood at 15 mg/kg, po for 40 days (reference value: 2.11 +/- 0.43 mmol/l). The class given is functional.
The subject of data set [11] is Oryctolagus cuniculus. The data set is described as follows: Toxicity in hyperlipidemic New Zealand Oryctolagus cuniculus (rabbit) assessed ashistopathological examination of pancreas at 5 to 15 mg/kg/day, po for 2 months by hematoxylin-eosin staining analysis. The class given is organism-based. The arrangement: route oral. The conditions noted are these: in vivo.

Data set [12] concerns Oryctolagus cuniculus. Briefly: Toxicity in hyperlipidemic New Zealand Oryctolagus cuniculus (rabbit) assessed as histopathological examination of kidney at 5 to 15 mg/kg/day, po for 2 months by hematoxylin-eosin staining analysis. Set-up: route oral. The conditions noted are these: in vivo. The class given is organism-based.
The subject of data set [13] is Oryctolagus cuniculus. The data set is described as follows: Toxicity in hyperlipidemic New Zealand Oryctolagus cuniculus (rabbit) assessed as effect on pancreas coefficient at 5 to 15 mg/kg/day, po for 2 months. The conditions noted are these: in vivo. It counts as organism-based. The arrangement: route oral.
The subject of data set [14] is Oryctolagus cuniculus. Briefly: Antihyperlipidemic activity in high fat-high cholesterol fed New Zealand Oryctolagus cuniculus (rabbit) assessed as high-density lipoprotein-cholesterol level in blood at 15 mg/kg, po for 40 days (reference value: 0.69 +/- 0.02 mmol/l). The class given is functional.
Data set [15] has as its system Oryctolagus cuniculus. The data set is described as follows: Toxicity in hyperlipidemic New Zealand Oryctolagus cuniculus (rabbit) assessed as effect on liver coefficient at 5 to 15 mg/kg/day, po for 2 months. It counts as organism-based. The arrangement: route oral. The conditions noted are these: in vivo.
Data set [16] relates to Oryctolagus cuniculus. Briefly: Toxicity in hyperlipidemic New Zealand Oryctolagus cuniculus (rabbit) assessed as morbidity at 5 to 15 mg/kg/day, po for 2 months. The class given is organism-based. Set-up: route oral. The conditions noted are these: in vivo.
The subject of data set [17] is Oryctolagus cuniculus. The data set is described as follows: Toxicity in hyperlipidemic New Zealand Oryctolagus cuniculus (rabbit) assessed as blood urea nitrogen level at 15 mg/kg/day, po for 2 months (reference value: 7.25 +/- 1.46 mmol/l). The arrangement: route oral. It counts as organism-based. The conditions noted are these: in vivo.
In data set [18] the test system is Oryctolagus cuniculus. The data set is described as follows: Toxicity in hyperlipidemic New Zealand Oryctolagus cuniculus (rabbit) assessed as blood urea nitrogen level at 10 mg/kg/day, po for 2 months (reference value: 7.25 +/- 1.46 mmol/l). It counts as organism-based. The arrangement: route oral. The conditions noted are these: in vivo.
Data set [19] relates to Oryctolagus cuniculus. Briefly: Toxicity in hyperlipidemic New Zealand Oryctolagus cuniculus (rabbit) assessed as blood urea nitrogen level at 5 mg/kg/day, po for 2 months (reference value: 7.25 +/- 1.46 mmol/l). The class given is organism-based. Set-up: route oral. The conditions noted are these: in vivo.
Data set [20] relates to Oryctolagus cuniculus. The data set is described as follows: Toxicity in hyperlipidemic New Zealand Oryctolagus cuniculus (rabbit) assessed as total bilirubin level at 15 mg/kg/day, po for 2 months (reference value: 28.45 +/- 11.55 Umol/l). It counts as organism-based. The arrangement: route oral. The conditions noted are these: in vivo.
Data set [21] has as its system Oryctolagus cuniculus. The data set is described as follows: Toxicity in hyperlipidemic New Zealand Oryctolagus cuniculus (rabbit) assessed as total bilirubin level at 5 mg/kg/day, po for 2 months (reference value: 28.45 +/- 11.55 Umol/l). The class given is organism-based. Set-up: route oral. The conditions noted are these: in vivo.
Data set [22] relates to Oryctolagus cuniculus. The data set is described as follows: Toxicity in hyperlipidemic New Zealand Oryctolagus cuniculus (rabbit) assessed as alanine aminotransferase level at 5 mg/kg/day, po for 2 months (reference value: 92.14 +/- 14.3 U/l). It counts as organism-based. The arrangement: route oral. The conditions noted are these: in vivo.
The subject of data set [23] is Oryctolagus cuniculus. The data set is described as follows: Toxicity in high fat-high cholesterol fed New Zealand Oryctolagus cuniculus (rabbit) assessed as body weight at 15 mg/kg, po for 40 days. It counts as organism-based. Set-up: dose 15 mg/kg, route oral. The conditions noted are these: in vivo, 960 h.

The source made the active and inactive calls. The rule behind the calls is not given here.

In the case of `CCCCCCCCCCCCCCCCc1c2c(OC)c(OC)ccc2cc2[n+]1CCc1cc3c(cc1-2)OCO3.[Cl-]` [8-HEXADECYL-BERBERINE CHLORIDE], the inhibition (usually the share of the control response that was lost under treatment) in [1] came to 42.7%. Moreover, the inhibition result with Oryctolagus cuniculus [2] and in the data set on Oryctolagus cuniculus [3] was “Active” in each case. The Activity in the data set with Oryctolagus cuniculus [4] amounted to 700000 nmol/L; with Oryctolagus cuniculus [5] it was 2.67e+06 nmol/L; with Oryctolagus cuniculus [6], 1.25e+06 nmol/L; in the data set with Oryctolagus cuniculus [7], 2.28e+06 nmol/L; with Oryctolagus cuniculus [8] it was 750000 nmol/L; in the data set on Oryctolagus cuniculus [9], 2.02e+06 nmol/L. Moreover, the Activity with Oryctolagus cuniculus [10] is 1.58e+06 nmol/L; with Oryctolagus cuniculus [11], “Non-toxic”; in the data set on Oryctolagus cuniculus [12], “Non-toxic”; with Oryctolagus cuniculus [13] it was “Non-toxic”; in the data set with Oryctolagus cuniculus [14] it was 750000 nmol/L; in the data set on Oryctolagus cuniculus [15], “Non-toxic”. Moreover, the Activity result in the data set on Oryctolagus cuniculus [16] was “Non-toxic”; in the data set on Oryctolagus cuniculus [17], 4.36 mmol/L; with Oryctolagus cuniculus [18], 4.73 mmol/L; in the data set on Oryctolagus cuniculus [19], 5.45 mmol/L; in the data set on Oryctolagus cuniculus [20], 12.8 µmol/L; in the data set with Oryctolagus cuniculus [21] it was 15.6 µmol/L. Further, the figures for the Activity in the data set on Oryctolagus cuniculus [22] and in the data set on Oryctolagus cuniculus [23] were 82.36 U/L and “Non-toxic”, respectively.
